PMC12675575, “A BRET biosensor for measuring uncompetitive engagement of PRMT5 complexes in cells” (Nature Communications, 2025)
“And” between values parts separate entries of the source, which are not always exact repeats. Identical values can stand only once.

Legend:
[1] = target: T1, PRMT9 (Homo sapiens, UniProt Q6P2P2); assay: CBH-002 affinity curve, HEK293, PRMT9-NL fusion; format: cell-based; design: BRET, CBH-002 + DMSO / BRET, CBH-002 + GSK3326595: unit not given here; conditions: for BRET, CBH-002 + DMSO / BRET, CBH-002 + GSK3326595: Figure S2D PRMT9-NL, log([CBH-002])
T1 construct: host or cells: HEK293
T1 sequence (Q6P2P2 1-845): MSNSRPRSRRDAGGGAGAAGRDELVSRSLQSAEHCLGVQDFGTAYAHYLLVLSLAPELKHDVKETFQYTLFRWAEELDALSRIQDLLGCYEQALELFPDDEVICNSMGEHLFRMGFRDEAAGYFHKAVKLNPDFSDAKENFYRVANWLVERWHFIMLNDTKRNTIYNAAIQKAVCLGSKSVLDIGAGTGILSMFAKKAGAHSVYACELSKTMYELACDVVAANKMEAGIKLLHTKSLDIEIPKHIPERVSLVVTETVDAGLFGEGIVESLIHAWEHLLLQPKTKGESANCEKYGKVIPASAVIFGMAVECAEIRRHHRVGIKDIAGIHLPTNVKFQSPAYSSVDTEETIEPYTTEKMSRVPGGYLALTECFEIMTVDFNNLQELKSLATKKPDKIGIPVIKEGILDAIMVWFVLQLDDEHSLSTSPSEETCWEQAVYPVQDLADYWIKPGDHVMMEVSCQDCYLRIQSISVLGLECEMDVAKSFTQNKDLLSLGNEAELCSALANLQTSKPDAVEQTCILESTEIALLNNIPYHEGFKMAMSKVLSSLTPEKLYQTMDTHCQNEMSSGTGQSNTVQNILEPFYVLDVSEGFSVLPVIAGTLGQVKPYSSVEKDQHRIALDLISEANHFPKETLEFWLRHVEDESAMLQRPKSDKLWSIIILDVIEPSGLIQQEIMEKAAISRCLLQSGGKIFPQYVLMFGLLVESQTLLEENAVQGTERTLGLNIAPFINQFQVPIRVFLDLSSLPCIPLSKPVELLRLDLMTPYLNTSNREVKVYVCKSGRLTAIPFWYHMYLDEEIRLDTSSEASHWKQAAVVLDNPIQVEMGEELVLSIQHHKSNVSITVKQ
Protocol: HEK293 cells (ATCC) were cultured in DMEM (Thermo Fisher) + 10% (v/v) FBS (Seredigm), and HCT116 cells (Horizon Discovery, #PAR-034 and #R02-033) were cultured in McCoy’s 5A (Thermo Fisher) + 10% FBS, with incubation in a humidified, 37 °C/5% CO2 incubator. Cells were split 1–3 days prior to performing experiments and used at roughly 80% confluency. […] Cells were transfected according to the manufacturer’s protocol using FuGENE HD (Promega). NanoLuc fusion DNA was diluted into Transfection Carrier DNA (Promega) in Opti-MEM at a ratio of 1:9 (mass/mass), and FuGENE HD was added at a ratio of 1:3 (μg DNA:μL lipid). For experiments using WDR77, untagged WDR77 DNA (Promega) was used in place of Carrier DNA. Formed complexes were combined with cells resuspended to a density of 2 × 10^5 cells/mL in Opti-MEM + 1% FBS at a ratio of 1:20 (vol:vol). Cells were plated into a flask and incubated at 37 °C in a humidified 5% CO2 atmosphere for 18–24 h, before being lifted and seeded into 96-well non-binding surface-treated plates (Corning). Cells were seeded at a density of 2 × 10^5 cells/mL in Opti-MEM + 1% FBS in 100 μL (96-well). The BRET probe CBH-002 was prepared first as a 100× stock in 100% DMSO (Sigma) and then diluted to a 20× stock in NanoBRET Tracer Dilution buffer (Promega). Test compounds were prepared as 1000× stocks in 100% DMSO and diluted to 10× stocks in Opti-MEM to prepare working stocks. […] NanoBRET Complete 3x Substrate was prepared by combining Nano-Glo Substrate and Extracellular NanoLuc Inhibitor in Opti-MEM, according to the manufacturer’s protocol (Promega). NanoBRET Complete 3× Substrate was added to cells and plates were measured on either a PheraSTAR FSX equipped with 450 nm (donor) and 610 nm (acceptor) filters, or a GloMAX Discover equipped with 450/8 nm BP (donor) and 600 nm LP (acceptor) filters, using a 0.3 s integration time.
EC50 values were obtained by fitting the BRET probe and compound affinity curves to a sigmoidal four-parameter fit model in Graphpad Prism:1 Y=Ymin+Ymax−Ymin/1+10^LogEC50−Xh where h is the Hill Slope.

[2] = target: NLuc-PRMT5 (Homo sapiens, UniProt O14744); assay: SAM titration against CBH-002 in HEK293 cell lysate (linear range of SAM detection); format: binding; design: host or cells: HEK293 (live cells; digitonin lysate for the SAM titration); conditions: for EC50: Figure S3B; for BRET signal, CBH-002 titration (Figure S3A): Log[CBH-002]
Sequence of NLuc-PRMT5 (O14744 whole entry): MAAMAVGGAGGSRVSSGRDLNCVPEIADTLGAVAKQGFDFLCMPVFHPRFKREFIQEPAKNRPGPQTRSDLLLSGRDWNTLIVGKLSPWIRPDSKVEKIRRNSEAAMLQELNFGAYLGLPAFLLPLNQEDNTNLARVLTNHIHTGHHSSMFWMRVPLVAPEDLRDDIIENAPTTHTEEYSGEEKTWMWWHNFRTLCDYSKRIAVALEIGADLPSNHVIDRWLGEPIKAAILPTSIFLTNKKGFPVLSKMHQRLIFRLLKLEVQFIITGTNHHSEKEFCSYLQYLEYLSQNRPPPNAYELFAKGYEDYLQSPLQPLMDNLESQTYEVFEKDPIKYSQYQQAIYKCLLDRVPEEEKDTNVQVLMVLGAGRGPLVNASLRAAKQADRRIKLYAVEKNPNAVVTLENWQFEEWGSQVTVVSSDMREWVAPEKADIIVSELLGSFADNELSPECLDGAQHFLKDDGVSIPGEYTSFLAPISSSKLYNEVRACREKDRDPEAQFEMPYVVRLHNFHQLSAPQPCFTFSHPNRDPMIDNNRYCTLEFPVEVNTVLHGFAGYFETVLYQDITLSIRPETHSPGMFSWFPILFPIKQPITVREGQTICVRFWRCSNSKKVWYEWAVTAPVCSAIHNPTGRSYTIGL
Sequence of NLuc-PRMT5 (Q9BQA1 whole entry partner): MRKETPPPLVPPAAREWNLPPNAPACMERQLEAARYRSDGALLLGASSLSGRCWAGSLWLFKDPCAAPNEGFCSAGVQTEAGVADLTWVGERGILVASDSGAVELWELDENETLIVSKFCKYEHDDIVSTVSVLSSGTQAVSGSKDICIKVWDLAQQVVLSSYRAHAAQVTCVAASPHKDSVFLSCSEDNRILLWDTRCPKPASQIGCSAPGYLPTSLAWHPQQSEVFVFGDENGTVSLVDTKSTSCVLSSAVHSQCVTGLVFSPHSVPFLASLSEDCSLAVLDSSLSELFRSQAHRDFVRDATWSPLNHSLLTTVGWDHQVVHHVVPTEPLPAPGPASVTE
Protocol: To determine the linear range of SAM detection, HEK293 cells expressing NLuc-PRMT5 were lysed by addition of a 10x digitonin solution (Sigma), 500 µg/mL in Opti-MEM) and treated with a 1 mM, 4-fold, 11 pt dose-response series of SAM (Sigma) and a 1 µM 2-fold, 8 pt dose-response series of CBH-002. Lysate was incubated at RT for 30 min prior to reading BRET. Data was normalized using Eq. (2) above, with BRETMIN = BRET signal at lowest [CBH-002] + 0 µM SAM, and BRETMAX = BRET signal at 1 µM CBH-002 + 1 mM SAM. Data were fit using Eq. (3), and CBH-002 EC50 was plotted against [SAM] to determine the linear range of detection.

BRET, CBH-002 + DMSO ([1]; uM 0.04576): 3.434 and 3.347 and 3.1287 | BRET, CBH-002 + GSK3326595 ([1]; uM 0.04576): 3.008 and 3.39 and 2.997 | BRET, CBH-002 + DMSO ([1]; uM 0.52288): 4.122 and 5.87 and 4.53 | BRET, CBH-002 + GSK3326595 ([1]; uM 0.52288): 5.212 and 4.497 and 4.8771 | BRET, CBH-002 + DMSO ([1]; uM 1): 6.91 and 7.001 and 6.884 | BRET, CBH-002 + GSK3326595 ([1]; uM 1): 6.307 and 7.343 and 6.276 | BRET, CBH-002 + DMSO ([1]; uM -0.43136): 2.433 and 2.903 and 2.863 | BRET, CBH-002 + GSK3326595 ([1]; uM -0.43136): 2.897 and 2.374 and 2.8944 | BRET, CBH-002 + DMSO ([1]; uM -0.90849): 2.344 and 2.202 and 2.303 | BRET, CBH-002 + GSK3326595 ([1]; uM -0.90849): 2.454 and 2.214 and 2.074 | BRET, CBH-002 + DMSO ([1]; uM -1.20952): 1.839 and 2.321 and 2.413 | BRET, CBH-002 + GSK3326595 ([1]; uM -1.20952): 2.422 and 2.062 and 3.074 | BRET, CBH-002 + DMSO ([1]; uM -1.68664): 1.998 and 2.054 and 2.063 | BRET, CBH-002 + GSK3326595 ([1]; uM -1.68664): 2.126 and 2.181 and 2.003 | BRET, CBH-002 + DMSO ([1]; uM -1.98767): 2.1788 and 2.218 and 2.268 | BRET, CBH-002 + GSK3326595 ([1]; uM -1.98767): 2.04 and 1.965 and 2.075 | BRET, CBH-002 + GSK3326595 ([1]; uM -2.46479): 2.072 and 1.988 and 1.944 | BRET, CBH-002 + DMSO ([1]; uM -2.94191): 1.888 and 2.124 and 2.713 | BRET, CBH-002 + GSK3326595 ([1]; uM -2.94191): 1.993 and 2.159 and 2.4012 | CBH-002 engagement at PRMT9 ([1]; HEK293, PRMT9-NL): did not show engagement | EC50 ([2]; CBH-002 EC50 at [SAM] 0 uM): 1070 nM | EC50 ([2]; CBH-002 EC50 at [SAM] 0.001 uM): 1220 nM | EC50 ([2]; CBH-002 EC50 at [SAM] 0.004 uM): 722 nM | EC50 ([2]; CBH-002 EC50 at [SAM] 0.06 uM): 232 nM | EC50 ([2]; CBH-002 EC50 at [SAM] 250 uM): 10 nM | EC50 ([2]; CBH-002 EC50 at [SAM] 1000 uM): 10 nM | BRET signal, CBH-002 titration (Figure S3A) ([2]; uM 0.00, [SAM] 0 uM): 59.75 and 46.60 and 39.12 | BRET signal, CBH-002 titration (Figure S3A) ([2]; uM 0.00, [SAM] 0.001 uM): 52.48 and 47.57 and 38.98 | BRET signal, CBH-002 titration (Figure S3A) ([2]; uM 0.00, [SAM] 0.004 uM): 78.50 and 49.28 and 41.20 | BRET signal, CBH-002 titration (Figure S3A) ([2]; uM 0.00, [SAM] 0.06 uM): 102.12 and 63.12 and 56.12 | BRET signal, CBH-002 titration (Figure S3A) ([2]; uM 0.00, [SAM] 250 uM): 116.71 and 100.65 and 98.69 | BRET signal, CBH-002 titration (Figure S3A) ([2]; uM 0.00, [SAM] 1000 uM): 100.00 | BRET signal, CBH-002 titration (Figure S3A) ([2]; uM -0.60, [SAM] 0 uM): 35.92 and 26.69 and 20.78 | BRET signal, CBH-002 titration (Figure S3A) ([2]; uM -0.60, [SAM] 0.001 uM): 38.65 and 26.89 and 21.61 | BRET signal, CBH-002 titration (Figure S3A) ([2]; uM -0.60, [SAM] 0.004 uM): 42.58 and 27.46 and 22.13 | BRET signal, CBH-002 titration (Figure S3A) ([2]; uM -0.60, [SAM] 250 uM): 110.40 and 94.49 and 89.50 | BRET signal, CBH-002 titration (Figure S3A) ([2]; uM -0.60, [SAM] 1000 uM): 106.63 and 91.94 and 90.40 | BRET signal, CBH-002 titration (Figure S3A) ([2]; uM -1.20, [SAM] 0 uM): 18.29 and 13.11 and 9.32 | BRET signal, CBH-002 titration (Figure S3A) ([2]; uM -1.20, [SAM] 250 uM): 100.06 and 80.70 and 74.62 | BRET signal, CBH-002 titration (Figure S3A) ([2]; uM -1.20, [SAM] 1000 uM): 101.04 and 80.00 and 77.33 | BRET signal, CBH-002 titration (Figure S3A) ([2]; uM -1.81, [SAM] 250 uM): 80.32 and 48.77 and 48.32 | BRET signal, CBH-002 titration (Figure S3A) ([2]; uM -1.81, [SAM] 1000 uM): 90.24 and 46.55 and 49.90
SMILES: O=C(CCc1ccc2n1[B-](F)(F)[N+]1=C(c3ccc[nH]3)C=CC1=C2)NCCCCC(=O)N1CCC(Nc2cc(C(=O)NC[C@H](O)CN3CCc4ccccc4C3)ncn2)CC1 [CBH-002]
